Key:
Type in all cases: in vivo, Male Wistar strain rats
[1] = test system: GM-induced nephritis rats; experiment: Urine volume and urinary protein in GM-induced nephritis rats; settings: 8th day; for Effect on urinary protein (in words) / Effect on urine volume (in words): GM-induced nephritis rats; for Urinary protein / Urine volume: mean ± S.E. of 8 to 9 rats, 7.5% GA via drinking water
Method: (§1) Gum Arabic was dissolved in water and filtered. The filtrate was spray-dried at about 120° C. to give the GA used in this experiment. GA was dissolved in tap water to prepare a 7.5% GA solution (7.5 g/100 mL, 7.5% GA). The 7.5% GA solution was used for oral administration in drinking water. Gentamicin sulfate (GM) was purchased from Sigma Chemical Co. and used as its saline solution. Prednisolone (PRD) was purchased from Sigma Chemical Co.
(§2) Male Wistar strain rats weighing 200-220 g (n=8 to 9 per group) were provided by SLC (Japan SLC, Hamamatsu). They were maintained in an air-conditioned room with lighting from 7 a.m. to 7 p.m. The room temperature (about 23° C.) and humidity (about 60%) were controlled automatically. They were kept for one week before treatment. Laboratory chows (Labo MR Stock, Nihon Nosan Kogyo K.K., Yokohama) and drinking water were freely available.
(§3) Nephritis was induced in rats by daily intraperitoneal injections of GM (80 mg/kg, i.p.) at 10:00 a.m. for 8 consecutive days. Animals injected with saline (1 mL/kg, i.p.) served as normal control. GA (7.5% GA) via the drinking water was administered for 8 consecutive days.
(§4) Rats were randomly assigned to the following eight groups of 8 to 9 rats each:
(§5) Group 1 (Normal): received daily intraperitoneal injections of saline (1 mL/kg, i.p.) for 8 days with tap water as drinking water.
(§6) Group 2 (7.5% GA): received daily saline (1 mL/kg, i.p.) and 7.5% GA via drinking water for 8 days.
(§7) Group 3 (GM): received daily GM (80 mg/kg, i.p.) for 8 days with tap water as drinking water.
(§8) Group 4 (GM+7.5% GA): received daily GM (80 mg/kg, i.p.) and 7.5% GA via the drinking water for 8 days.
(§9) Group 5 (GM+PRD/water): received daily PRD/water (2 mg/kg, p.o.) at 1 hr before daily GM (80 mg/kg, i.p.) administration for 8 days with tap water as drinking water.
(§10) Group 6 (GM+PRD/water+7.5% GA): received daily PRD/water (2 mg/kg, p.o.) at 1 hr before daily GM (80 mg/kg, i.p.) administration and 7.5% GA via the drinking water for 8 days.
(§11) 24 hr urine samples were obtained by keeping each animal in an individual metabolic cage for 24 hr at 10:00 a.m. on the 8th day. Rats were fasted for 1 day before urine collection. The collected urine was then centrifuged at 1,600×g for 10 min, and the supernatant was used for protein determination. Immediately after the urine collection, blood sample was taken from abdominal veins. The blood was centrifuged at 1,600×g for 10 min to give serum for the determination of blood urea nitrogen (BUN), serum creatinine and creatinine clearance.
(§12) The urinary protein excretion was determined by the method of Kingsbury et al (The Journal of Laboratory and Clinical Medicine, 11, 981-989, 1926) and expressed as mg/day. Briefly, a 3% solution of sulfosalicylic acid was added to a diluted urine sample, and placed at room temperature for 10 minutes. Then concentrations of urinary protein were determined from absorbance at 400 nm, and the urinary protein excretion (mg/day) was calculated from the volume of 24 hr urine. Commercial kits (Wako Pure Chemical Industries, Ltd.) were used to assay BUN, creatinine and creatinine clearance in serum with the following assay kits: Urea nitrogen B and Creatinine.
(§13) The experimental data were tested for statistical significant differences by means of Bonferroni/Dunn's method (Multiple Range Test).
(§14) PRD (2 mg/kg, p.o.) was orally administered in a form of suspension (0.2 mL/100 g weight of rat) in tap water (PRD/water) 1 hr before GM (80 mg/kg, i.p.) administration to rats of group 5 (GM+PRD/water) and group 6 (GM+PRD/water+7.5% GA). Group 5 received tap water as drinking water. Group 6 received 7.5% GA as drinking water.

[2] = test system: GM-induced nephritis rats; experiment: Organ wet weight / body weight ratio in GM-induced nephritis rats; settings: for Adrenal gland weight / Kidney weight / Liver weight / Spleen weight / Thymus weight: 8th day, mean ± S.E. of 8 to 9 rats, GM 80 mg/kg i.p., 7.5% GA via drinking water
Method: as §1, §2, §3, §4, §5, §6, §7, §8, §9, §10
On the last day, the organs (adrenal gland, thymus, spleen, kidney and liver) were isolated from the rats, and the ratio of each organ wet weight (mg)/body weight (100 g) was determined.
as §13, §14

[3] = test system: GM-induced nephritis rats; experiment: BUN, serum creatinine and creatinine clearance in GM-induced nephritis rats; settings: 8th day; for Effect on BUN level (in words): GM-induced nephritis rats; for BUN / Creatinine clearance / Serum creatinine: mean ± S.E. of 8 to 9 rats
Method: as §1, §2, §3, §4, §5, §6, §7, §8, §9, §10, §11, §12, §13, §14

[4] = Table 2, GM 80 mg/kg i.p. 8 days, 7.5% GA group got saline, no GM
[5] = Table 5, GM 80 mg/kg i.p., PRD 2 mg/kg p.o. 1 hr before GM
[6] = Table 1, GM 80 mg/kg i.p. 8 days, 7.5% GA via drinking water, 7.5% GA group got saline, no GM
[7] = Table 4, GM 80 mg/kg i.p., PRD 2 mg/kg p.o. 1 hr before GM, 7.5% GA via drinking water

Compound: Gentamicin sulfate [GM]
- Effect on urinary protein (in words) [1]: increased
- Effect on urine volume (in words) [1]: increased
- Urinary protein [1, 4]: 26.7 ± 3.3 mg/24 hr
- Urine volume [1, 4]: 43.1 ± 4.3 mL/24 hr
- Urinary protein [1, 5]: 26.7 ± 3.3 mg/24 hr
- Urine volume [1, 5]: 43.1 ± 4.3 mL/24 hr
- Effect on kidney weight ratio (in words) ([2]; GM-induced nephritis rats, last day): slightly increased
- Effect on weight of thymus (in words) ([2]; GM-induced nephritis rats, last day, side-effect of PRD): tendency to decrease
- Adrenal gland weight ([2]; Table 3): 23.5 ± 1.4 mg/100 g of body weight
- Kidney weight ([2]; Table 3): 0.89 ± 0.03 g/100 g of body weight
- Liver weight ([2]; Table 3): 2.95 ± 0.07 g/100 g of body weight
- Spleen weight ([2]; Table 3): 209.4 ± 10.8 mg/100 g of body weight
- Thymus weight ([2]; Table 3): 223.5 ± 15.2 mg/100 g of body weight
- Adrenal gland weight ([2]; Table 6, PRD 2 mg/kg p.o.): 23.5 ± 1.4 mg/100 g of body weight
- Kidney weight ([2]; Table 6, PRD 2 mg/kg p.o.): 0.89 ± 0.03 g/100 g of body weight
- Liver weight ([2]; Table 6, PRD 2 mg/kg p.o.): 2.95 ± 0.07 g/100 g of body weight
- Spleen weight ([2]; Table 6, PRD 2 mg/kg p.o.): 209.4 ± 10.8 mg/100 g of body weight
- Thymus weight ([2]; Table 6, PRD 2 mg/kg p.o.): 223.5 ± 15.2 mg/100 g of body weight
- Effect on BUN level (in words) [3]: markedly increased
- BUN ([3]; Table 1, GM 80 mg/kg i.p. 8 days, 7.5% GA via drinking water 8 days, 7.5% GA group got saline, no GM): 78.0 ± 11.9 mg/dL
- Creatinine clearance [3, 6]: 0.19 ± 0.10 mL/min
- Serum creatinine [3, 6]: 2.36 ± 0.41 mg/dL
- BUN [3, 7]: 78.0 ± 11.9 mg/dL
- Creatinine clearance [3, 7]: 0.19 ± 0.10 mL/min
- Serum creatinine [3, 7]: 2.36 ± 0.41 mg/dL

Compound: C[C@]12C=CC(=O)C=C1CC[C@@H]1[C@@H]2[C@@H](O)C[C@@]2(C)[C@H]1CC[C@]2(O)C(=O)CO [PRD, Prednisolone]
- Effect on urinary protein (in words) [1]: significantly inhibited the increment of urinary protein
- Effect on urine volume (in words) [1]: did not show any effects on the increment of urine volume
- Effect on weight of thymus (in words) ([2]; rat, in vivo): further decreased
- Effect on BUN level (in words) [3]: significant protective effect on increments of BUN level
